This series deals with BEAS-2B. Briefly: Cytotoxicity against human BEAS-2B cells assessed as reduction in cell viability at 25 uM measured after 48 hrs by MTT assay. The format is toxicity, cell-based. For orientation: Tetrazolium dyes change colour on reduction, which living cells bring about.

With `O=c1[nH]cc(F)c(=O)[nH]1` [FLUOROURACIL], the Activity entry is recorded as “Toxic”.

Source of the values: ChEMBL document CHEMBL5532691, “Anti-cancer activity and mechanism of flurbiprofen organoselenium compound RY-1-92 in non-small cell lung cancer” (RSC Med Chem, 2024).
